For series [1], the system named is HCV subgenomic reporter replicon of genotype 1b (strain Con1). The series is described as follows: Anti-HCV 1b activity, luciferase reporter replicon assay in Huh5-2 cells. The conditions noted are these: for pEC50: read-out: HCV Replicon 1b EC50; for HCV Replicon 1b SI50: SI50 = CC50/EC50; for fold more potent than six-membered congeners: 1, 9, 17, 21 vs 29, 30, 31, 32 respectively. In kind it is cell-based, Hepatitis C virus. How it is done: (§1) The HCV RNA replication inhibitory effect of the novel compounds and their impact on cell viability was tested in the stable cell line Huh5-2 carrying an HCV subgenomic reporter replicon of genotype 1b (strain Con1). The viral replication level was measured in terms of the activity of the co-expressed firefly luciferase (F-Luc). Several concentrations of the tested compounds were prepared in a cell culture medium and were used to treat the cells for 72 h. The solvent DMSO was added as a control with a final concentration of 0.2% so as not to impact viral replication (data not shown). First, different compound concentrations of up to 100 μM were evaluated for their effect on cell viability; results are reported as the median cytotoxic concentration (CC50). Next, all compounds were screened for their anti-HCV activity at a concentration of 1 µM, and compounds showing ≥50% activity were further tested in several concentrations to calculate the median effective concentration (EC50) values (Table 1 and Table 2). The anti-HCV activity of the analogs 1–32 was estimated by quantifying luciferase activity resulting from viral replication. Cytotoxicity was determined by measuring the intracellular levels of ATP. The selectivity index (SI50) was calculated as the ratio of CC50 to EC50 and was calculated as an indication of the compounds’ safety. We used daclatasvir as a positive control.
The stable replicon cell line Huh5-2 (genotype 1b; Con1) (kindly provided by R. Bartenschlager, Heidelberg University, Germany) has been described previously. The stable cell lines Huh7.5-3a and Huh7.5-4a have been constructed with the subgenomic reporter replicons of HCV 3a (S52) S52-SG(Feo)(AII) and HCV 4a (ED43) ED43-SG(Feo)(VYG) (kindly provided by C.M. Rice, The Rockefeller University, NY). Cells were cultured in high glucose (25 mM) Dulbecco’s modified minimal essential medium (Invitrogen), supplemented with 2 mM L-glutamine, 0.1 mM non-essential amino acids, 100 U/mL penicillin, 100 µg/mL streptomycin, and 10% (v/v) fetal calf serum (referred to as complete DMEM). Complete DMEM was supplemented with G418 at 500 μg/mL for Huh5-2, 750 μg/mL for Huh7.5-3a, and 350 μg/mL for Huh7.5-4a.
(§2) Cells were treated with serial dilutions of the test compounds or the solvent DMSO for 72 h. Antiviral activity and cytotoxicity were determined by measuring virus-derived luciferase activity or intracellular ATP levels, respectively. The median effective concentration (EC50) of the compounds, reducing luciferase signal by 50%, and their median cytotoxic concentration (CC50), causing 50% cell death, were determined by nonlinear regression analysis using the Prism 6.0 software (GraphPad Software Inc.). Daclatasvir was kindly provided by Dr. Marc Windisch (Institut Pasteur Korea).
Firefly luciferase activity was measured using Luciferase Assay System (Promega), according to the manufacturer’s instructions. Measurements were performed with a GloMax 20/20 single tube luminometer (Promega) for 10 s. Values were normalized to total protein amounts as quantified by Bradford assay (Pierce).
For orientation: Reporter assays use an easily measured gene product as a stand-in for the process of interest.

In series [2] the test system is Huh5-2 cells. The series is described as follows: Cytotoxicity by intracellular ATP levels. In kind it is cell-based. The conditions noted are these: 72 h, read-out: HCV Replicon 1b CC50. The procedure:
as §1, §2
(§3) ATP was measured using the ViaLight HS BioAssay kit (Lonza) according to the manufacturer’s protocol in a GloMax 20/20 single-tube luminometer (Promega) for 1 s. Values were normalized to total protein amounts.

Series [3] can be described thus: Cytotoxicity by intracellular ATP levels. The conditions noted are these: human, Huh5-2 cells, read-out: HCV Replicon 1b CC50. In kind it is cell-based. How it is done:
as §1, §2, §3

Where [4] appears, read: Huh5-2 cells, 72 h, luciferase activity.
Where [5] appears, read: Hepatitis C virus, Huh-5-2, 72 h.

We go through 16 molecules from publication PMC8064491, “Design and Synthesis of Novel Symmetric Fluorene-2,7-Diamine Derivatives as Potent Hepatitis C Virus Inhibitors” (Pharmaceuticals, 2021).

pEC50: −log10 of the molar value. Read-outs that look alike come from different tables or passages of the source.

As a reminder, the pEC50 is the EC50 on a negative log10 scale, so that one unit is a factor of ten. One may read the CC50 as the concentration giving 50% cytotoxicity.

On to “Dibenzyl((2S,2’S)-((2S,2’S)-(((9H-fluorene-2,7-diyl)bis(azanediyl))bis(carbonyl))bis(pyrrolidine-2,1-diyl))bis(4-methyl-1-oxopentane-1,2-diyl))dicarbamate [Compound 20]”, for which, in series [1] (setting [4]), the pEC50 is below 6.00. Further, the CC50 in series [2] was 98.7 µM.
As to “Diethyl((2S,2’S)-((2S,2’S)-(((9H-fluorene-2,7 diyl)bis(azanediyl))bis(carbonyl)) bis(pyrrolidine-2,1-diyl))bis(4-methyl-1-oxopentane-1,2-diyl))dicarbamate [Compound 18]”, the negative-log EC50 (pEC50) in series [1] (setting [4]) is 6.82. Besides, in series [1], the “HCV Replicon 1b SI50” value is given as above 664. The CC50 in series [2] is above 100 µM.
Take `CC(C)C[C@@H](NC(=O)OCc1ccccc1)C(=O)N1CCC[C@H]1C(=O)Nc1ccc2c(c1)Cc1cc(NC(=O)[C@@H]3CCCN3C(=O)[C@@H](CC(C)C)NC(=O)OCc3ccccc3)ccc1-2` [Compound 16, Dibenzyl((2R,2’R)-((2S,2’S)-(((9H-fluorene-2,7-diyl)bis(azanediyl))bis(carbonyl))bis(pyrrolidine-2,1-diyl))bis(4-methyl-1-oxopentane-1,2-diyl))dicarbamate]: the negative-log EC50 (pEC50) in series [1] (setting [5]) is below 6.00. In addition, the CC50 at 72 h in series [3] is above 100 µM.
For `CCOC(=O)N[C@H](C(=O)N1CCC[C@H]1C(=O)Nc1ccc2c(c1)Cc1cc(NC(=O)[C@@H]3CCCN3C(=O)[C@@H](NC(=O)OCC)C(C)C)ccc1-2)C(C)C` [Compound 2, Diethyl((2S,2’S)-((2S,2’S)-(((9H-fluorene-2,7-diyl)bis(azanediyl))bis(carbonyl))bis(pyrrolidine-2,1-diyl))bis(3-methyl-1-oxobutane-1,2-diyl))dicarbamate], in series [1] (setting [5]), the pEC50 is below 6.00. Also, the half-maximal cytotoxic concentration (CC50) at 72 h in series [3] was above 100 µM.
As for “Dibenzyl((2S,2’S)-((2S,2’S)-(((9H-fluorene-2,7-diyl)bis(azanediyl))bis(carbonyl))bis(pyrrolidine-2,1-diyl))bis(3-methyl-1-oxopentane-1,2-diyl))dicarbamate [Compound 12]”, the negative-log EC50 (pEC50) in series [1] (setting [4]) was below 6.00. Further, the CC50 in series [2] stood at 46.5 µM.
Regarding `CC(C)[C@H](NC(=O)OCc1ccccc1)C(=O)N1CCC[C@H]1C(=O)Nc1ccc2c(c1)Cc1cc(NC(=O)[C@@H]3CCCN3C(=O)[C@@H](NC(=O)OCc3ccccc3)C(C)C)ccc1-2` [Compound 4, Dibenzyl ((2S,2’S)-((2S,2’S)-(((9H-fluorene-2,7-diyl)bis(azanediyl))bis(carbonyl))bis(pyrrolidine-2,1-diyl))bis(3-methyl-1-oxobutane-1,2-diyl))dicarbamate], the pEC50 in series [1] (setting [5]) is 6.01. Further, the “HCV Replicon 1b SI50” value in series [1] is above 103. In addition, the CC50 at 72 h in series [3] was above 100 µM.
Take “Dimethyl((2S,2’S)-((2S,2’S)-(((9H-fluorene-2,7-diyl)bis(azanediyl))bis (carbonyl)) bis(pyrrolidine-2,1-diyl))bis(4-methyl-1-oxopentane-1,2-diyl))dicarbamate [Compound 17]”: the “fold more potent than six-membered congeners” value in series [1] (HCV 1b EC50 ratio) is on record as 28 fold. Also, the pEC50 in series [1] (setting [4]) was 7.97. For the same molecule, in series [1], the “HCV Replicon 1b SI50” value is above 9381. The CC50 in series [2] is above 100 µM.
Regarding “Diethyl((2S,2’S)-((2S,2’S)-(((9H-fluorene-2,7-diyl)bis(azanediyl))bis(carbonyl))bis(pyrrolidine-2,1-diyl))bis(3-methyl-1-oxopentane-1,2-diyl))dicarbamate [Compound 10]”, in series [1] (HCV 1b EC50 ratio), the “fold more potent than congener with D-leucine moiety” value is recorded as 18 fold. For the same molecule, the pEC50 in series [1] (setting [4]) is 9.86. Besides, the “HCV Replicon 1b SI50” value in series [1] is 622,344. In addition, the half-maximal cytotoxic concentration (CC50) in series [2] came out at 85.5 µM.
With `CCOC(=O)N[C@H](C(=O)N1CCC[C@H]1C(=O)Nc1ccc2c(c1)Cc1cc(NC(=O)[C@@H]3CCCN3C(=O)[C@@H](NC(=O)OCC)c3ccccc3)ccc1-2)c1ccccc1` [Compound 22, Diethyl((1S,1’S)-((2S,2’S)-(((9H-fluorene-2,7-diyl)bis(azanediyl))bis(carbonyl))bis(pyrrolidine-2,1-diyl))bis(2-oxo-1-phenylethane-2,1-diyl))dicarbamate], the pEC50 in series [1] (setting [5]) is 8.13. The “HCV Replicon 1b SI50” value in series [1] is listed as >13,349. The half-maximal cytotoxic concentration (CC50) at 72 h in series [3] was above 100 µM.
For `COC(=O)N[C@H](C(=O)N1CCCC(C(=O)Nc2ccc3c(c2)Cc2cc(NC(=O)C4CCCN(C(=O)[C@@H](NC(=O)OC)c5ccccc5)C4)ccc2-3)C1)c1ccccc1` (stereo partly shown) [Compound 32], the pEC50 in series [1] (setting [5]) was 6.52. In addition, the “HCV Replicon 1b SI50” value in series [1] is above 328. In series [3], the 50% cytotoxic concentration (CC50) at 72 h is above 100 µM.
For the molecule `CCOC(=O)N[C@@H](C(=O)N1CCC[C@H]1C(=O)Nc1ccc2c(c1)Cc1cc(NC(=O)[C@@H]3CCCN3C(=O)[C@H](NC(=O)OCC)C(C)C)ccc1-2)C(C)C` [Compound 6, Diethyl((2R,2’R)-((2S,2’S)-(((9H-fluorene-2,7-diyl)bis(azanediyl))bis(carbonyl))bis(pyrrolidine-2,1-diyl))bis(3-methyl-1-oxobutane-1,2-diyl))dicarbamate], the pEC50 in series [1] (setting [5]) is 6.99. The “HCV Replicon 1b SI50” value in series [1] turned out to be 780. Moreover, in series [3], the CC50 at 72 h was 79.5 µM.
For `COC(=O)N[C@@H](CC(C)C)C(=O)N1CCCC(C(=O)Nc2ccc3c(c2)Cc2cc(NC(=O)C4CCCN(C(=O)[C@H](CC(C)C)NC(=O)OC)C4)ccc2-3)C1` (stereo partly shown) [Compound 30] the same measures were 6.54, above 346 and above 100 µM.
For `CC(C)(C)OC(=O)N1CCCC(C(=O)Nc2ccc3c(c2)Cc2cc(NC(=O)C4CCCN(C(=O)OC(C)(C)C)C4)ccc2-3)C1` (stereo not shown) [IV, Di-tert-butyl3,3’-(((9H-fluorene-2,7diyl)bis(azanediyl))bis(carbonyl))bis(piperidine-1-carboxylate)], the pEC50 in series [1] (Hepatitis C virus, Huh-5-2, Huh5-2 cells, 72 h, luciferase activity) was below 6.00. The 50% cytotoxic concentration (CC50) at 72 h in series [3] was 45 µM.
Consider `CCCCOC(=O)N[C@@H](C(=O)N1CCC[C@H]1C(=O)Nc1ccc2c(c1)Cc1cc(NC(=O)[C@@H]3CCCN3C(=O)[C@H](NC(=O)OCCCC)c3ccccc3)ccc1-2)c1ccccc1` [Compound 27, Dibutyl((1R,1’R)-((2S,2’S)-(((9H-fluorene-2,7-diyl)bis(azanediyl))bis(carbonyl))bis(pyrrolidine-2,1-diyl))bis(2-oxo-1-phenylethane-2,1-diyl))dicarbamate], for which the “times less potent than compound 26” value in series [1] (HCV 1b EC50 ratio) was 100 times. In addition, in series [1] (setting [5]), the pEC50 is 8.39. For the same molecule, the “HCV Replicon 1b SI50” value in series [1] was >24,795. Besides, the 50% cytotoxic concentration (CC50) at 72 h in series [3] was above 100 µM.
Take `COC(=O)N[C@H](C(=O)N1CCC[C@H]1C(=O)Nc1ccc2c(c1)Cc1cc(NC(=O)[C@@H]3CCCN3C(=O)[C@@H](NC(=O)OC)c3ccccc3)ccc1-2)c1ccccc1` [Compound 21, Dimethyl((1S,1’S)-((2S,2’S)-(((9H-fluorene-2,7diyl)bis(azanediyl))bis(carbonyl))bis(pyrrolidine-2,1-diyl))bis(2-oxo-1-phenylethane-2,1-diyl))dicarbamate]: the “fold more potent than six-membered congeners” value in series [1] (HCV 1b EC50 ratio) came out at 36 fold. Also, in series [1] (setting [5]), the negative logarithm of the EC50 (pEC50) was 8.07. In addition, the “HCV Replicon 1b SI50” value in series [1] is listed as 10,298. Besides, the CC50 at 72 h in series [3] was 87.5 µM.
Regarding “Dimethyl((2S,2’S)-((2S,2’S)-(((9H-fluorene-2,7-diyl)bis(azanediyl))bis(carbonyl))bis(pyrrolidine-2,1-diyl))bis(3-methyl-1-oxopentane-1,2-diyl))dicarbamate [Compound 9]”, in series [1] (HCV 1b EC50 ratio), the “fold more potent than six-membered congeners” value worked out at 11 fold and the “times less active than R congener compound 13” value was “around 340 times”. In series [1] (setting [4]), the negative logarithm of the EC50 (pEC50) is 7.56. For the same molecule, the “HCV Replicon 1b SI50” value in series [1] is above 3636. In addition, the CC50 in series [2] was above 100 µM.
